Measured values from article PMC4220016, “The binding characteristics and orientation of a novel radioligand with distinct properties at 5-HT3A and 5-HT3AB receptors” (Neuropharmacology, 2014).
Values joined by “and” are separate entries in the source; they are usually repeats but may differ in a detail not shown here. Equal entries are not always repeated. Where two headings read alike, the source gives them in different places.

Tests used:
Type in all cases: binding
Parameters in all cases: expressed in transfected cells; host or cells: HEK 293
5-HT3A receptors [1] = target: T1, 5-HT3A receptors (Homo sapiens, UniProt P46098); assay: Kinetic measurements (association, dissociation) at 5-HT3A receptors; settings: calculated from kinetic rates, Equ (4), read-out: Kd(nM) (kon/koff)
T1 sequence (P46098 24-478): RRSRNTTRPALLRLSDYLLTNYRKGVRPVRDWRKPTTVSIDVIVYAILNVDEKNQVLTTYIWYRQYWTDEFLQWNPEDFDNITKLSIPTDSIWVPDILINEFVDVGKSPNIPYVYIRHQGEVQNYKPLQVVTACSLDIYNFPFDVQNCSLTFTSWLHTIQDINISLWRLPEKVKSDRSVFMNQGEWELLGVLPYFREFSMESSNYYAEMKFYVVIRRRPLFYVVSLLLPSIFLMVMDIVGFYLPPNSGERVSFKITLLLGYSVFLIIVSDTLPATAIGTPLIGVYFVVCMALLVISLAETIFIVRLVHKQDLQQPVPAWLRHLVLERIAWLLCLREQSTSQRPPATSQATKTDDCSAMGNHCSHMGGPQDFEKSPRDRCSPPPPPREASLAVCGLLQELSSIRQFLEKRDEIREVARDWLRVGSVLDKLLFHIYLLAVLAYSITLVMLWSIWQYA

5-HT3A receptors [2] = target: T1, 5-HT3A receptors; assay: biochemical
5-HT3AB receptors = target: T2, 5-HT3AB receptors (Homo sapiens, UniProt O95264+P46098); assay: Kinetic measurements (association, dissociation) at 5-HT3AB receptors; settings: from kinetic rates, Equ (4), read-out: Kd(nM) (kon/koff)
T2 sequence (P46098 24-478): T1 sequence (P46098 24-478)
T2 sequence (O95264 22-441): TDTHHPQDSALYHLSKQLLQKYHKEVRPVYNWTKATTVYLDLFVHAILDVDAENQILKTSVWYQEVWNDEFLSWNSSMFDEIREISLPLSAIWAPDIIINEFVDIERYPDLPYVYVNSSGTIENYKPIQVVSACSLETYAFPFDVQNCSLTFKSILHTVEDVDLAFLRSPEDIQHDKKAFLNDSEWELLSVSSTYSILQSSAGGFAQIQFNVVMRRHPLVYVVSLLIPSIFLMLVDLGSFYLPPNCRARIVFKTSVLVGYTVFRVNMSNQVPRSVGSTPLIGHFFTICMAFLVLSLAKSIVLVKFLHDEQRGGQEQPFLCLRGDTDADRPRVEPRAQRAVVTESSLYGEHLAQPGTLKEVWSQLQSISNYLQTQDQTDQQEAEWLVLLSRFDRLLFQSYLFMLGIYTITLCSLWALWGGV

Question: How did the Kd (5-HT3A receptors [1]) turn out when `CN1CCN(c2nc3ccccc3nc2Cl)CC1` [[^3H]VUF10166] [2-chloro-3-(4-[^3H]methylpiperazin-1-yl)quinoxaline] was run?
Answer: 0.16 nM

Question: What about the Kd (5-HT3A receptors [2]; 5-HT3A, tritiated ligand, transfected HEK 293 cells, 0 °C, read-out: Kd (nM) saturation) of the same compound?
Answer: 0.18 nM

Question: What about the Kd (5-HT3A receptors [2]; Wild Type, Table 5 series, read-out: Kd (nM) Mean ± SEM) of the same compound?
Answer: 0.21 ± 0.04 nM

Question: What about the Kd (5-HT3AB receptors; first component) of the same compound?
Answer: 0.38 nM

Question: And the Kd (5-HT3AB receptors; second component (>3 nM))?
Answer: 22 nM and 22.4 nM
